Entries after “also recorded” stand apart in the source; their conditions may differ.
Legend:
[1] = complex of copper(II) with the buffer; cited from earlier work
Source text: Shifting in fragmentation sites could be related to structural alterations induced by the N-protection. It is commonly accepted that the N-capping ...

[2] = 50 mM Hepes buffer at pH 7.4, peptide alone; conditions: 4 °C, up to 14 days
[3] = 50 mM HEPES buffer at pH 7.4 with 25 µM zinc(II) chloride; conditions: 4 °C, up to 14 days
[4] = 50 mM HEPES buffer at pH 7.4 with 25 µM copper(II) nitrate; conditions: 4 °C, up to 14 days
[5] = Peptide hydrolysis in Hepes buffer alone or with Cu2+/Zn2+, followed by HPLC-ESI/MS; assay type: physicochemical; conditions: 50 mM HEPES pH 7.4, 4 °C, LC-MS relative % area
Procedure: Herein, we analyzed the hydrolytic process of Aβ peptides in 50 mM Hepes buffer at 7.4 physiological pH over two weeks at two distinct temperatures, 4 °C and 37 °C, using mass spectrometry coupled with high-performance liquid chromatography (HPLC-MS) for precise analysis. Additionally, we explored the impact of copper(II) or zinc(II) ions, each added in a 1:1 molar ratio to the peptides, on the resulting hydrolytic fragmentation patterns. It is worth noting that metal binding only occurs at the N-terminal region of Aβ peptides, specifically interacting with histidine residues. The commonly accepted peptide sequence 1–16 (^1[…]^16, Aβ16) is widely used as a model for this interaction due to its inclusion of all three histidines (His6, His13, and His14) known for their key roles in coordinating metal ions. Therefore, the initial studies were performed on this short peptide.
General. All chemicals were of reagent grade and purchased from Sigma-Aldrich. Preparative HPLC was carried out with a Shimadzu LC-20AD Prominence instrument equipped with a diode array detector. Mass spectra and LCMS/MS data were performed with an LCQ ADV MAX ion-trap mass spectrometer equipped with an ESI ion source. The instrument was run in an automated LC-MS/MS mode and using a surveyor HPLC system (Thermo Finnigan, San Jose, CA, USA) equipped with a Phenomenex Jupiter 4u Proteo column (4 μm, 150 × 2.0 mm). For the analysis of peptide fragments, Bioworks 3.1 and Xcalibur 2.0.7 SP1 software were used (Thermo Finnigan, San Jose, CA, USA).
Peptide hydrolysis in the presence of metal ions. Solutions of Aβ16 and Aβ28 (500 µM) alone or with the addition of Cu(NO3)2 (1 eqv., 500 µM) or ZnCl2 (1 eqv., 500 µM) were prepared in 50 mM Hepes buffer at pH 7.4. The solutions were then incubated at 4 °C or 37 °C (only for Aβ16) in atmospheric air and every 7 days aliquots were taken, diluted to the 25 µM final concentration with Hepes buffer, and analyzed by HPLC-ESI/MS. The solution of R1τ, Ac-R1τ, αSyn15, and Ac-αSyn15 (25 µM) fragments were incubated in 50 mM Hepes buffer at 4 °C for 14 days; at the same time, solutions also containing copper(II) or zinc(II) in a 1:1 molar ratio respect to peptide were prepared. The elution was performed by using 0.1% HCOOH in distilled water (solvent A) and 0.1% HCOOH in acetonitrile (solvent B), with a flow rate of 0.2 mL/min. Elution started with 98% solvent A for 5 min, followed by a linear gradient from 98 to 55% A in 55 min. […] For the analysis of peptide fragments, Bioworks 3.1 and Xcalibur 2.0.7 SP1 software were used (Thermo Finnigan, San Jose, CA, USA).

[6] = Aβ28 500 µM + 500 µM copper(II) nitrate, 14 days
[7] = Aβ28 500 µM + 500 µM copper(II) nitrate, 21 days
[8] = Aβ28 500 µM + 500 µM zinc(II) chloride, 14 days
[9] = Aβ28 500 µM + 500 µM zinc(II) chloride, 21 days

Compound	cleaved bond [2]	cleaved bond [3]	cleaved bond [4]	Remaining amount of Aβ28 and species detected by LC-MS (Table S2) [5, 6] [%]	Remaining amount of Aβ28 and species detected by LC-MS (Table S2) [5, 7] [%]	Remaining amount of Aβ28 and species detected by LC-MS (Table S2) [5, 8] [%]	Remaining amount of Aβ28 and species detected by LC-MS (Table S2) [5, 9] [%]	Remaining amount of Aβ28 and species detected by LC-MS (Table S2) ([5]; Aβ28 500 µM alone, 14 days) [%]	further results
O=S(=O)(O)CCN1CCN(CCO)CC1 [Hepes]	–	–	–	–	–	–	–	–	Copper(II) complex formation constant (log K) [1]: 3
Ac-^1MDVFMKGLSKAKEGV^15-NH2	K6-G7, 14 days; also recorded: K10-A11, 14 days; also recorded: L8-S9, 14 days	L8-S9, 14 days	L8-S9, 14 days	–	–	–	–	–	–
Ac-^256VKSKIGSTENLKHQPGGG^273-NH2	K259-I260, 14 days; also recorded: G261-S262, 14 days; also recorded: I260-G261, 14 days; also recorded: E264-N265, 14 days; also recorded: S258-K259, 14 days; also recorded: Q269-P270, 14 days; also recorded: K267-H268, 14 days; also recorded: L266-K267, 14 days	G261-S262, 14 days; also recorded: N265-L266, 14 days; also recorded: E264-N265, 14 days; also recorded: K267-H268, 14 days	G261-S262, 14 days; also recorded: N265-L266, 14 days; also recorded: E264-N265, 14 days	–	–	–	–	–	–
DAEFRHDSGYEVHHQKLV.F [hydrolytic fragment 1-18 of Aβ28]	–	–	–	4	7	7	10	5	–
DAEFRHDSGYEVHHQKLVF.F [hydrolytic fragment 1-19 of Aβ28]	–	–	–	1	1	7	6	–	–
DAEFRHDSGYEVHHQKLVFFAE.D [hydrolytic fragment 1-22 of Aβ28]	–	–	–	3	5	9	7	–	–
E.FRHDSGYEVHHQ.K [hydrolytic fragment 4-15 of Aβ28]	–	–	–	–	–	–	–	2	–
H-MDVFMKGLSKAKEGV-NH2	–	–	–	–	–	–	–	–	amount (%) of intact peptide after hydrolysis: > 90%
K.LVFFAEDVGSNK [hydrolytic fragment 17-28 of Aβ28]	–	–	–	1	1	5	4	22	–
Q.KLVFFAEDVGSNK [hydrolytic fragment 16-28 of Aβ28]	–	–	–	–	–	10	13	16	–
^1MDVFMKGLSKAKEGV^15-NH2	K6-G7, 14 days; also recorded: F4-M5, 14 days; also recorded: L8-S9, 14 days	K6-G7, 14 days; also recorded: F4-M5, 14 days; also recorded: L8-S9, 14 days	K12-E13, 14 days; also recorded: K6-G7, 14 days; also recorded: F4-M5, 14 days; also recorded: L8-S9, 14 days	–	–	–	–	–	–
^256VKSKIGSTENLKHQPGGG^273-NH2	G261-S262, 14 days; also recorded: N265-L266, 14 days	K259-I260, 14 days; also recorded: I260-G261, 14 days; also recorded: E264-N265, 14 days; also recorded: K267-H268, 14 days	N265-L266, 14 days; also recorded: S258-K259, 14 days; also recorded: Q269-P270, 14 days	–	–	–	–	–	–

— paper PMC11767661 (Molecules, 2025)
